The OligoGym collection
Values joined by “and” are separate entries in the source; they are usually repeats but may differ in a detail not shown here. Identical values can stand only once. These antisense oligonucleotides have a phosphorothioate backbone; sugars and methylation of C are not fully specified.

target: PDPK1; conditions: ASO
Note: test concentration or dose not given here.

| Sequence | remaining target (mRNA or protein) (fraction of control) |
| --- | --- |
| TCTGGAGAAACGTACTGC | ≥ 1 |
| GCTGTTCCCACGAATGAG | 0.39 |
| CGAAGTTCTTGTGACCAA | ≥ 1 |
| TTTAAGTAGTTCTCCATT | 0.39 |
| AAAGGTCTGAACTCTTAC | 0.59 |
| TTGGCCCTGGCTTGTTTG | 0.23 |
| ATTTTCTACAAACTGGTG | 0.83 |
| CAGGACAACCGTGGAAAA | ≥ 1 |
| AGCGTCCTCCTCCCCGAA | 0.87 |
| CTGGTATCGCTGCCTCCA | 0.22 |
| TCCTGTTAGGCGTGTGGA | 0.53 |
| CCAGCTCGGAATGGTGGG | 0.82 |
| GCTGCAAGGTTTCCGCCT | ≥ 1 |
| GTGCTGGACTCAGTCTGG | 0.51 |
| CTTCCATTTCCTCACAGC | 0.33 |
| ATATTCTCTGGAGGTTGC | 0.78 |
| GTCCCTGTGAATGATGCC | 0.24 |
| GCATATTCTCTGGAGGTT | ≥ 1 |
| GAGTTGGCCCTGGCTTGT | 0.5 |

| Sequence | remaining target (mRNA or protein) (fraction of control) |
| --- | --- |
| GGAGGCTGGGCATGCTGC | 0.16 |
| GGTCTCTTGCCTTAGGGA | 0.37 |
| AGGCGCGACATGACATCC | 0.25 |
| ATAGCAGTCCTCGTCGTC | 0.57 |
| GCTGCCTCCAAACCTCCT | ≥ 1 |
| AGACTTTTGCTGTTCCAA | 0.28 |
| TATGATATGTCGCTTCTC | 0.42 |
| GTTCAAAGGAGTTCGAGT | 0.5 |
| GACATCCCGCTCTCTGGT | 0.68 |
| AAGGTCCCTGTGAATGAT | 0.39 |
| ATGTGGTCCTTCTGTGAG | ≥ 1 |
| CAAGGTTTCCGCCTCTGC | 0.26 |
| TAAGTCCAGTTCAAAGGA | 0.75 |
| CACTGCACAGCGGCGTCC | ≥ 1 |
| TTGCTGTTCCAAAATCTG | ≥ 1 |
| AACAACAACCTCTTCTCA | 0.7 |
| TGGATGTGCATATCTTCA | 0.81 |
| AAGGCCGAAATACAGCTT | 0.29 |
| TTTATGATATGTCGCTTC | ≥ 1 |

target: ICAM1; conditions: ASO

| Sequence | remaining target (mRNA or protein) (fraction of control) |
| --- | --- |
| CACATGTCTATGGAGGG | 0.89 |
| GGGGCGGTGCTGCTTTCCCGG | ≥ 1 |
| CCATAGCGAGGC | ≥ 1 |
| GAGGAGCTCAGCGTCGACTG | 0.83 and ≥ 1 |
| ATAGCGAGGC | ≥ 1 |
| CAAGTGTGCATCCCCCAGGC | 0 |
| TTGGGACAATGTCTCAGCTT | 0.25 |
| GCTTTCCCGGAAA | 0.82 |
| CTCTGAGTAGCAGAGG | 0.76 |
| TTGAGAAAGCTTTATTAACT | ≥ 1 |
| TGATCCTTTATAGCGCTAGCC | 0.9 |
| AGCGAGGCTGAG | 0.79 |
| CCCGGAAACCTCGCGC | 0.88 |
